Data on three compounds can be found in patent publication US9539327B2, “Small molecule cancer treatments that cause necrosis in cancer cells but do not affect normal cells” (THE RESEARCH FOUNDATION FOR THE STATE UNIVERSITY OF NEW YORK, priority 2007, dated 2017).

Ends that are not written are not given here.

For series [1], the system named is MiaPaCa-2, Hu-Melanoma cells, BMRPA1.TUC-3 cells. The experiment in a line: Dose-response cytotoxicity by LDH release, cancer cells (FIG. 13 A-C). Format: cell-based. The settings on record: 1-500 micrograms/ml; 30 min at 37° C.; tumor cells. Here is the method:
(§1) FIG. 13, graphs A through D, depict the results of dose-response experiments completed on three difference cancer cell samples and one normal primary human cell line to treatment in vitro with PNC-27 (from 1-500 micrograms/ml). The cancer cell lines were human pancreatic cancer, MiaPaCa-2 (upper left, A), Hu-Melanoma cells (upper right, B), and a rodent tumor cell line, i.e., pancreatic cancer BMRPA1.TUC-3 cells (lower left, C). As controls, cells from the same cell lines were tested in parallel with a control peptide, PNC-29, over the same range of peptide concentrations. As another control, cells from primary human Ag 13145 fibroblasts (lower right, D) were treated with the same doses of PNC-27 and PNC-29, respectively.
(§2) The results are plotted along with those for PNC-29, the negative control. […] The measurements of cytotoxicity were performed by assaying for LDH in the cell supernatant.
(§3) For the dose response experiments (n=3-5), 0.1 ml of each of the cells (70,000 cells/ml of culture medium) were seeded into each of the wells of 96-well TCD (7000 cells/well) and allowed to adhere overnight. […] The results were read at OD490 nm in an ELISA plate reader within 15 min of stopping the color development in the wells. The results were calculated as advised by the manufacturers guidelines (CytoTox 96 Non-radioactive Cytotoxicity Assay, Promega), and the data were expressed in % Cytotoxicity.
(LDH in the medium is a marker of cell lysis.)

Series [2] concerns non-cancerous cells. As to the kind of experiment: Untransformed cell lines and primary human cells incubated with peptide (FIG. 5). In kind it is cell-based. The settings on record: Thirty microMolar; one day up to two weeks; normal rat pancreatic acinar cells, human breast cells, primary human fibroblasts, primary human keratinocytes, umbilical cord stem cells. The text has this: The experimental methods which yielded the data depicted in FIG. 5 are described in sufficient detail for those skilled in the art in the following publications: • Kanovsky, M., Raffo, A., Drew, L., Rosal, R., Do, T., Friedman, F. K., Rubinstein, P., Visser, I., Robinson, R., Brandt-Rauf, […]., Fine, R. L. and Pincus, M. R. (2001) Peptides from the Amino Terminal mdm-2 Binding Domain of p53, Designed from Conformational Analysis, Are Selectively Cytotoxic to Transformed Cells. Proc. Natl. Acad. Sci. USA 98, 12438-12443; • Do, T. N., Rosal, R. V., Drew, L., Raffo, […]., Pincus, M. R., Friedman, […]., Sidhu, G., Fine, R. L. and Brandt-Rauf, P. W. (2003) Preferential Induction of Necrosis in Human Breast Cancer Cells by a p53 Peptide Derived from the mdm-2 Binding Site. Oncogene 22, 1431-1444; and • Bowne, […]., Yadzi, E., Lou, […]., Harding, M., Bluth, M. H., Ng, M., Brandt-Rauf, […]. and Pincus, M. r. (2008) The Penetrating Sequence in the Anti-Cancer PNC-28 Peptide Causes Tumor Necrosis Rather than Apoptosis of Human Pancreatic Cancer Cells. Ann. Surg. Oncol., in press. Referring to FIG. 5, the table illustrates that the cancer treatment PNC-27, when administered to non-cancerous cells, has no effect. […]

Series [3] has as its system human pancreatic cancer MIA PaCa-2 cells. The experiment in a line: Transmission electron microscopy of PNC-28-treated cells (FIG. 8). Format: cell-based. As to conditions: treated for 10 minutes; 50 μg/ml. Here is the method:
FIG. 8 depicts a photograph taken during a Transmission Electron Microscopy study of human pancreatic cancer MIA PaCa-2 cells that had been treated for 10 minutes with PNC-28. […] The middle arrow depicts an area of the cell's plasma membrane that has erupted as a result of PNC-28 acting upon it. The bottom-most arrow depicts an area on the cell's plasma membrane that is discontinuous as a result of PNC-28 administration. From one or more of these areas emphasized with arrows, the cytoplasm will begin to leak from the cell, into the surrounding medium. Extrusion of much of the cells cytoplasmic content through such holes (pores) while the nuclear membrane was still intact was a frequent finding in these and other tumor cells when the incubation period with PNC-28 was extended. Magn. ×42,600.
Cells (1×10^6) were grown in 6-well dishes overnight then spent medium was removed, the cells were washed with PBS and treated at 37° C. with PNC-28 at 50 μg/ml in PBS. At different time points (5-30 min) during the PNC-28 treatment the cells were washed and fixed in 3% buffered paraformaldehyde supplemented with 0.01% glutaraldehyde for 1.5 h. After extensive washing, the cells were treated with glycine and NaBH4 as described above followed by 3 times washing in PBS. […]

Series [4] concerns primary human Ag 13145 fibroblasts. The experiment in a line: Dose-response cytotoxicity by LDH release, normal fibroblasts (FIG. 13 D). In kind it is cell-based. As to conditions: same dose range as applied to tumor cells (1-500 micrograms/ml); 30 min at 37° C. Here is the method: as §1, §2, §3
The subject of series [5] is Cancer cells.
Protocol: After the cells were treated, the cells were incubated first with the anti-p53 antibody that recognizes p53 residues 12-26. This antibody is called DO-1, and it is labeled with FITC, a green fluorescent probe. The cells were washed free of any excess antibody. Then the cells were incubated with an anti-HDM-2 antibody that was been conjugated to a red fluorescent dye. After washing the cells free of excess antibody, the cells were subjected to confocal microscopy.

Take `CC[C@H](C)[C@H](NC(=O)[C@H](CCCNC(=N)N)NC(=O)[C@H](CCCCN)NC(=O)CNC(=O)[C@@H](NC(=O)[C@H](CO)NC(=O)[C@H](Cc1ccccc1)NC(=O)[C@@H]1CCCN1C(=O)[C@@H](N)CCSC)[C@@H](C)O)C(=O)N[C@@H](CCSC)C(=O)N[C@@H](CC(C)C)C(=O)NCC(=O)N[C@@H](CCC(=O)O)C(=O)N[C@@H](CCCCN)C(=O)N[C@@H](CCCCN)C(=O)N[C@@H](Cc1c[nH]c2ccccc12)C(=O)N[C@@H](CCCCN)C(=O)N[C@@H](CCSC)C(=O)N[C@@H](CCCNC(=N)N)C(=O)N[C@@H](CCCNC(=N)N)C(=O)N[C@@H](CC(N)=O)C(=O)N[C@@H](CCC(N)=O)C(=O)N[C@@H](Cc1ccccc1)C(=O)N[C@@H](Cc1c[nH]c2ccccc12)C(=O)N[C@H](C(=O)N[C@@H](CCCCN)C(=O)N[C@H](C(=O)N[C@@H](CCC(N)=O)C(=O)N[C@@H](CCCNC(=N)N)C(=O)NCC(=O)O)C(C)C)C(C)C` [PNC-29, reference compound]: the “cytotoxicity (LDH in the cell supernatant)” value in series [1] was “absence of any effect”.
As to “ETFSDLWKLLKKWKMRRNQFWVKVQRG (PNC-28) [p53 AA 17-26 attached to the membrane resident peptide (MRP)]”, in series [2], the “effect on non-cancerous cells” value was “no measurable effect”. Also, the “plasma membrane change (TEM)” value in series [3] is given as “needle-shaped pore has formed in the cancer cell plasma membrane”.
The IC50 is the concentration that inhibits the measured activity by half. Read a low IC50 as higher potency. Take “PPLSQETFSDLWKLLKKWKMRRNQFWVKVQRG [PNC-27]”: the results for the “cytotoxicity (LDH in the cell supernatant)” value in series [1] and in series [4] were “strong dose dependency” and “no effect”, respectively. Also, the IC50 in series [5] stood at 125 µg/mL.
